Assays:
Assay type in all cases: in vivo
Design in all cases: scale not given here
[1] = test system: Echinochloa crus-galli (L.) Beauv. var. crus-galli; test: Herbicidal effect by upland foliage treatment; details: active ingredient 1000 g/ha, examined at 14th day from treatment
Description: (§1) A sand was filled in a plastic pot of 80 cm^2. Seeds of Echinochloa crus-galli (L.) Beauv. var. crus-galli and Setaria viridis (L.) Beauv. were sowed. Breeding was made in a greenhouse for 2 weeks. Wettable powders produced in accordance with the Formulation 1 were diluted with water and sprayed on the whole foliage of plants from above the plants using a small sprayer in an amount of 1,000 liters per 1 hectare so that the amount of each active ingredient became 1,000 g per 1 hectare. Then, breeding was made in the greenhouse, and the herbicidal effect of each wettable powder was examined at the 14th day from the treatment in accordance with the standard shown in Table 21.

[2] = test system: Setaria viridis (L.) Beauv.; test: Herbicidal effect by upland foliage treatment; details: active ingredient 1000 g/ha, examined at 14th day from treatment
Description: as §1

[3] = test system: Echinochloa oryzicola Vasing; test: Herbicidal effect by paddy field soil treatment; details: wettable powder, active ingredient 1000 g/ha, examined at the 21st day from the treatment
Description: (§2) A paddy field soil was filled in a plastic pot of 100 cm^2 and subjected to puddling. Then, seeds of Echinochloa oryzicola Vasing and Monochoria vaginalis (Murm. f.) Presl var. plantaginea (Roxb.) Solms-Laub. were sowed and water was filled in a depth of 3 cm. Next day, wettable powders produced in accordance with the Formulation 1 were diluted with water and dropped on the water surface. The application amount of each wettable powder was 1,000 g per 1 hectare in terms of the active ingredient. Then, breeding was made in a greenhouse, and the herbicidal effect of each wettable powder was examined at the 21st day from the treatment in accordance with the standard shown in Table 21.

[4] = test system: Monochoria vaginalis (Murm. f.) Presl var. plantaginea (Roxb.) Solms-Laub.; test: Herbicidal effect by paddy field soil treatment; details: wettable powder, active ingredient 1000 g/ha, examined at the 21st day from the treatment
Description: as §2

[5] = test system: Setaria viridis (L.) Beauv.; test: Herbicidal effect by upland field soil treatment; details: active ingredient 1000 g/ha, examined at 21st day from treatment
Description: (§3) An upland field soil was filled in a plastic pot of 80 cm^2. Seeds of Echinochloa crus-galli (L.) Beauv. var. crusgalli and Setaria viridis (L.) Beauv. were sowed, followed by covering with the same soil. […] Then, breeding was made in a greenhouse, and the herbicidal effect of each wettable powder was examined at the 21st day from the treatment in accordance with the standard shown in Table 21.

[6] = test system: Echinochloa crus-galli (L.) Beauv. var. crusgalli; test: Herbicidal effect by upland field soil treatment; details: active ingredient 1000 g/ha, examined at 21st day from treatment
Description: as §3

Compound	herbicidal effect (index per standard of Table 21), Echinochloa curs-galli (L.) Beauv. Var. crus-galli [1]	herbicidal effect (index per standard of Table 21), Setaria viridis (L.) Beauv. [2]	Herbicidal effect index, Echinochloa oryzicola Vasing [3]	Herbicidal effect index, Monochoria vaginalis (Burm. F.) Presl var. plantaginea (Roxb.) Solms-Laub. [4]	herbicidal effect (index per standard of Table 21), Setaria viridis (L.) Beauv. [5]	herbicidal effect (index per standard of Table 21), Echinochloa curs-galli (L.) Beauv. Var. crus-galli [6]
CC(C)n1nc(Cl)c(CS(=O)(=O)C2=NOC(C)(C)C2)c1C(F)(F)F [3-0076]	5	4				
CCCn1nc(C(F)(F)F)c(CS(=O)(=O)C2=NOC(C)(C)C2)c1Cl [3-0077]	5	4				
CC1(C)CC(S(=O)(=O)Cc2c(C(F)(F)F)nn(CC3CC3)c2Cl)=NO1 [3-0092]	4	4				
C=CCn1nc(C(F)(F)F)c(CS(=O)(=O)C2=NOC(C)(C)C2)c1Cl [3-0104]	5	4				
CC1(C)CC(S(=O)(=O)Cc2c(Cl)nn(CC(N)=O)c2C(F)(F)F)=NO1 [3-0139]			5	5	5	5
CC1(C)CC(S(=O)(=O)Cc2c(C(F)(F)F)nn(-c3ccccc3)c2C(F)(F)F)=NO1 [3-0153]			5	5	5	5
CCOc1c(CS(=O)(=O)C2=NOC(C)(C)C2)c(C(F)(F)F)nn1-c1ccccc1 [3-0156]			5	5	5	5
CC1(C)CC(S(=O)(=O)Cc2c(C(F)(F)F)nn(-c3ncccn3)c2Cl)=NO1 [3-0173]			5	5	5	5
COc1cc(OC)nc(-n2nc(C(F)(F)F)c(CS(=O)(=O)C3=NOC(C)(C)C3)c2Cl)n1 [3-0174]			5	5	5	5
CCC1(C)CC(S(=O)(=O)Cc2c(C(F)(F)F)nn(C)c2Cl)=NO1 (stereo not drawn) [3-0180]			5	5	5	5
Cc1onc(-c2ccccc2)c1CS(=O)(=O)C1=NOC(C)(C)C1 [4-0007]			5	5	5	5
CCOc1snc(C)c1CS(=O)(=O)C1=NOC(C)(C)C1 [4-0008]			5	5	5	5
CCOc1c(C)nn(-c2ccccc2)c1CS(=O)(=O)C1=NOC(C)(C)C1 [5-0005]			5	5	4	5
Cc1nn(-c2ccccc2)c(CS(=O)(=O)C2=NOC(C)(C)C2)c1OC(F)F [5-0006]			5	5	5	5
CC1(C)CC(S(=O)(=O)Cc2nn(-c3ccccc3)cc2OC(F)F)=NO1 [6-0003]			5	5	5	5
CC1(C)CC(S(=O)(=O)Cc2ccc[n+]([O-])c2)=NO1 [7-0004]			5	5	4	5
CC1(C)CC(S(=O)(=O)Cc2nc(-c3ccccc3)no2)=NO1 [9-0006]			5	5	4	5
CC1(C)CC(S(=O)(=O)Cc2sc3ccccc3c2Cl)=NO1 [10-0003]			5	5	5	5
CC1(C)CC(S(=O)(=O)Cn2nnc3ccccc32)=NO1 [10-0004]			5	5	5	5
Cn1ncc2c(CS(=O)(=O)C3=NOC(C)(C)C3)cccc21 [10-0005]			5	5	5	5
CC1(C)CC(S(=O)(=O)Cc2nc3ccccc3s2)=NO1 [10-0006]			5	5	4	5
CC1(C)CC(S(=O)(=O)Cc2nc3ccccc3o2)=NO1 [10-0009]			5	5	5	5
CC1(C)CC(S(=O)(=O)Cc2cc3ccccc3o2)=NO1 [10-0012]			5	5	4	5
Cc1cc2cccc(CS(=O)(=O)C3=NOC(C)(C)C3)c2o1 [10-0013]			5	5	5	5
CC1(C)CC(S(=O)(=O)Cc2oc3ccccc3c2Br)=NO1 [10-0014]			5	5	5	5
CC1(C)CC(S(=O)(=O)Cc2cccc3ccsc23)=NO1 [10-0015]			5	5	5	5
Cn1ncc2cccc(CS(=O)(=O)C3=NOC(C)(C)C3)c21 [10-0016]			5	5	4	5
Cc1c(CS(=O)(=O)C2=NOC(C)(C)C2)oc2ccccc12 [10-0017]			5	5	5	5
Cn1c(CS(=O)(=O)C2=NOC(C)(C)C2)c(Cl)c2ccccc21 [10-0018]			5	5	5	5

From US7238689B2, “Isoxazoline derivative and herbicide comprising the same as active ingredient” (Ihara Chemical Industry Co., Ltd., priority 2001, dated 2007)
